Source: publication PMC7429354, “Potentiating TMEM16A does not stimulate airway mucus secretion or bronchial and pulmonary arterial smooth muscle contraction” (FASEB BioAdvances, 2020)
pEC50: −log10 of the molar value.

Key:
TMEM16A [1] = target: T1, TMEM16A (Mus musculus, UniProt Q8BHY3); assay: QPatch automated whole-cell patch clamp, recombinant channel (potentiator, maximum […] efficacy); type: cell-based
T1 construct: gene Ano1; full-length (NM_178642.5), stably expressed in CHO cells
T1 sequence (Q8BHY3 1-960): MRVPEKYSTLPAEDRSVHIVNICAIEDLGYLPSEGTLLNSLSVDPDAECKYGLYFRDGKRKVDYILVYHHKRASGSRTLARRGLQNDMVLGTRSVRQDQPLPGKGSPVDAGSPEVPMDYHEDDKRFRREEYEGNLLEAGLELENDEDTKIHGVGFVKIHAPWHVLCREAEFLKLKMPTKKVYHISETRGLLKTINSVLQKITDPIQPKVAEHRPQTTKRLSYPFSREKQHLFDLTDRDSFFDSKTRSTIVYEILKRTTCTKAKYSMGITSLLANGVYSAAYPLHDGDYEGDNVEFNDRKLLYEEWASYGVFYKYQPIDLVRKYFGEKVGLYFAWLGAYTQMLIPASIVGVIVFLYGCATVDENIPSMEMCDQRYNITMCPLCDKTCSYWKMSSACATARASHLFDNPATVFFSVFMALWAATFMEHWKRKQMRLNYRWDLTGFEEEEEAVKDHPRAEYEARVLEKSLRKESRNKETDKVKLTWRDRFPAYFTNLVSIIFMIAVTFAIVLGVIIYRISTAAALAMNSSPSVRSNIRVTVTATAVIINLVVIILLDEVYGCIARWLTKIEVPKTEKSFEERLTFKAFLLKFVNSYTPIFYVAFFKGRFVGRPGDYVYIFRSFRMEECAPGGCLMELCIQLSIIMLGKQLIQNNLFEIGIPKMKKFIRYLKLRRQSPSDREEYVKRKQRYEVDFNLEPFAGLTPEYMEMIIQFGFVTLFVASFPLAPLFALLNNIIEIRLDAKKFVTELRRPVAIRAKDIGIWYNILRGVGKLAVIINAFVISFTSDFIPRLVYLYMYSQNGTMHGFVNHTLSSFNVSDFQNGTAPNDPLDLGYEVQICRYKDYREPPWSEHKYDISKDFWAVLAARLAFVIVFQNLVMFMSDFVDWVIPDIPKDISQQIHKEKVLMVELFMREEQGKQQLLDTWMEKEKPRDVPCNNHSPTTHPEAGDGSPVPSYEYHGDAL

TMEM16A [2] = target: T2, TMEM16A (Rattus norvegicus, UniProt D4A915); assay: as above; type: cell-based
T2 construct: gene Ano1; full-length (NM_01107564.1), stably expressed in a cell line
T2 sequence (D4A915 1-1105): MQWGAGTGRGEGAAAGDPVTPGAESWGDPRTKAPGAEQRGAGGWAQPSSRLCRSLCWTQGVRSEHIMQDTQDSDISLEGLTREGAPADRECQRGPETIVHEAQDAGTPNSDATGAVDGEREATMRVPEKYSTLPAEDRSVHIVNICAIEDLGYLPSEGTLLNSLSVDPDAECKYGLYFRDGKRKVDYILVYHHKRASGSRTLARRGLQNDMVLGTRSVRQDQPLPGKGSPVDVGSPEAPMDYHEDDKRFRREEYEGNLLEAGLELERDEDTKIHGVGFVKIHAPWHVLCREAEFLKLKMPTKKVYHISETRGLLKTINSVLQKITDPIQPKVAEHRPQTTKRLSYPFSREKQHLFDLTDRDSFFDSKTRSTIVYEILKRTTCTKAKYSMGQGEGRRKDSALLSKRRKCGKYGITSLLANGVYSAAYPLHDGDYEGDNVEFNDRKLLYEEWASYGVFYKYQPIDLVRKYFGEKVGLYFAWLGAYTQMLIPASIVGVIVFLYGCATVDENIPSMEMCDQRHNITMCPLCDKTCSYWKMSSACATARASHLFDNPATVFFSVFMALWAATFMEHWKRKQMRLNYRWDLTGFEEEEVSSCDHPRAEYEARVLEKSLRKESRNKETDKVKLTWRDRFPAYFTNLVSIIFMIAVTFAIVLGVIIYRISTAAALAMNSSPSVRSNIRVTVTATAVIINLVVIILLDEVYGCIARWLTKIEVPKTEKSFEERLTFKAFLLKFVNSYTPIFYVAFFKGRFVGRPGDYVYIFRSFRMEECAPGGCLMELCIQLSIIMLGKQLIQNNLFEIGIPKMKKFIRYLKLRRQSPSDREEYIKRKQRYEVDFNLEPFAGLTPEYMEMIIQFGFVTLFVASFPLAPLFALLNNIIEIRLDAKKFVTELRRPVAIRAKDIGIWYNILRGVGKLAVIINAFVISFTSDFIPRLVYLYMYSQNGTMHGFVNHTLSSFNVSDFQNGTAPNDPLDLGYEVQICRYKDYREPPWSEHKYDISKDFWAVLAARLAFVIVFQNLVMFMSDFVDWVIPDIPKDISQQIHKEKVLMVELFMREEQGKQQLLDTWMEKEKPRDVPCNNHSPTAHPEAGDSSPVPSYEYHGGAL

Work on ETX004 yielded a pEC50 (TMEM16A [1]) of 7.42.
In the case of ETX001, the pEC50 (TMEM16A [2]) was 7.06.
